One data set deals with CAMK2A (Homo sapiens (Human), UniProt Q9UQM7). Description: Kinase selectivity test (HotSpot Full Panel Kinase profiling). As to conditions: 100 nM, ATP 10 μM; read-out: Residual activity (%) CAMK2A. The data set is classed as biochemical. The procedure: (§1) Buffer: 20 mM HEPES, pH 7.5, 10 mM MgCl2, 2 mM […] (as needed), 1 mM EGTA, 0.02% Brij35, 0.02 mg/mL BSA, 0.1 mM Na3VO4, 2 mM DTT, 1% DMSO
(§2) Compound concentration: 100 nM

The target in another data set is TNIK (Homo sapiens (Human), UniProt Q9UKE5). The description is as above. The format is biochemical. The note with it: 100 nM, ATP 10 μM; read-out: Residual activity (%) TNIK. How it is done: as §1, §2
Sequence of TNIK (Q9UKE5 whole entry): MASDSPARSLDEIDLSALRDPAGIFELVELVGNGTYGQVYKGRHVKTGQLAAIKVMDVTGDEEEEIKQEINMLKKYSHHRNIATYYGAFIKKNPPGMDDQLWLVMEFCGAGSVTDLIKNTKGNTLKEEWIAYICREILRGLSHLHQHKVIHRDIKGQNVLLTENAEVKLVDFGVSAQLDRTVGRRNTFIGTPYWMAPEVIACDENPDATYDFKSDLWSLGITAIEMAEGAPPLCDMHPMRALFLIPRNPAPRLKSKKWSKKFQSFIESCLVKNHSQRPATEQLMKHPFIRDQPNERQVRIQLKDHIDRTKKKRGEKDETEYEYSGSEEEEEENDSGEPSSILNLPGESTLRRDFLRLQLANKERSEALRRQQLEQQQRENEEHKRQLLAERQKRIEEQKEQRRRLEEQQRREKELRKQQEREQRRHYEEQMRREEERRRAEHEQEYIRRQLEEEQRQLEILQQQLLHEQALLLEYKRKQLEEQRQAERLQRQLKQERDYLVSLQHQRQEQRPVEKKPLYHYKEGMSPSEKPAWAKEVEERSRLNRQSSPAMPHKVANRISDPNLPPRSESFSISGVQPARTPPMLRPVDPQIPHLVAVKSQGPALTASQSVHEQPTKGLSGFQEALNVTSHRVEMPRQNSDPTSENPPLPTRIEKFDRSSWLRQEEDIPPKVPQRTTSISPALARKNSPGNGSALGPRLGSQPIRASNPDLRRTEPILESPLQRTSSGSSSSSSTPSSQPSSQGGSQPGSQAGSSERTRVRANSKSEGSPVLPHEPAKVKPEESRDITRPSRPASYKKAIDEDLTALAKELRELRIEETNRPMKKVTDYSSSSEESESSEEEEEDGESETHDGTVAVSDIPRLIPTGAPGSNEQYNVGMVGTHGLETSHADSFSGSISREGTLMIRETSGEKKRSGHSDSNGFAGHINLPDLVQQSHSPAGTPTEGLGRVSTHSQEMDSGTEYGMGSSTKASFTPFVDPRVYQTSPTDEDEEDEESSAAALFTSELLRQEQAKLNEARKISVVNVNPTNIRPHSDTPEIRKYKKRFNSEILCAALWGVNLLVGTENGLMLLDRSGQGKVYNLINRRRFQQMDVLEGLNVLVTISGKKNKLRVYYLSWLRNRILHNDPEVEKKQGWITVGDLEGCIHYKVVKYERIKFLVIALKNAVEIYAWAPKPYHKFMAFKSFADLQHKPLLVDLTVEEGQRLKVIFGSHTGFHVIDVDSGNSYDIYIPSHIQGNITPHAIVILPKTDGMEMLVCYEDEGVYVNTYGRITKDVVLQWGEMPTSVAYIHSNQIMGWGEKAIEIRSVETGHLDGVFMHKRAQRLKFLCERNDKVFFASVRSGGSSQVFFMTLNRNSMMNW
For a further data set, the target named is RSK3 (Homo sapiens (Human), UniProt Q15349). Described as above. The data set is classed as biochemical. As to conditions: 100 nM, ATP 10 μM; read-out: Residual activity (%) RSK3. The procedure: as §1, §2
Sequence of RSK3 (Q15349 whole entry): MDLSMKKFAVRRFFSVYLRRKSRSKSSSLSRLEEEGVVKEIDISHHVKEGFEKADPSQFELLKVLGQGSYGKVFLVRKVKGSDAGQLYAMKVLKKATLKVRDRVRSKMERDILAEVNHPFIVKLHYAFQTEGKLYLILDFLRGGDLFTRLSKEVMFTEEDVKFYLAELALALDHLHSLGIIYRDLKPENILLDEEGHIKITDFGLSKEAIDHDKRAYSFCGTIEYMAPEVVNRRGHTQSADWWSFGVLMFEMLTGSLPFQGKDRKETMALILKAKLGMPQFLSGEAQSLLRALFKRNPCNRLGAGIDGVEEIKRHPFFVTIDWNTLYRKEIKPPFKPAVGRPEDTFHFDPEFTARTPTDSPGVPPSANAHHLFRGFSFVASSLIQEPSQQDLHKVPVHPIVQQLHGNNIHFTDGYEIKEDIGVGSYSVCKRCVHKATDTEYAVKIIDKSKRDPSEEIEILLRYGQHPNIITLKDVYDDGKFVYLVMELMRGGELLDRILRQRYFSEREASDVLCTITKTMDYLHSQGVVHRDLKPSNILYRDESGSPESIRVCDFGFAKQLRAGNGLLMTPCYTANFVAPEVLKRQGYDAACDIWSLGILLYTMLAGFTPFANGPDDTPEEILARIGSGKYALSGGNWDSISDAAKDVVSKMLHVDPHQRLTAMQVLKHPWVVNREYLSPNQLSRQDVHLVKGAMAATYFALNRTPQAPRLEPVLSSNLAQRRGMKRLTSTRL
For the next data set, the target named is SIK2 (Homo sapiens (Human), UniProt Q9H0K1). The data set is described as above. The format is biochemical. The note with it: 100 nM, ATP 10 μM; read-out: Residual activity (%) SIK2. The procedure:
as §1, §2

Another data set concerns the target MELK (Homo sapiens (Human), UniProt Q14680). Described as above. The format is biochemical. As to conditions: 100 nM, ATP 10 μM; read-out: Residual activity (%) MELK. The procedure: as §1, §2
The target in the next data set is TRKC (Homo sapiens (Human), UniProt Q16288). The description is as above. The data set is classed as biochemical. As to conditions: 100 nM, ATP 10 μM; read-out: Residual activity (%) TRKC. The procedure:
as §1, §2

A further data set has as its target RSK2 (Homo sapiens (Human), UniProt P51812). Described as above. The format is biochemical. The note with it: 100 nM, ATP 10 μM; read-out: Residual activity (%) RSK2. The procedure: as §1, §2
The target of a further data set is RSK1 (Homo sapiens (Human), UniProt Q15418). Described as above. The note with it: 100 nM, ATP 10 μM; read-out: Residual activity (%) RSK1. The data set is classed as biochemical. How it is done:
as §1, §2

The target of another data set is RET (Homo sapiens (Human), UniProt P07949). The data set is described as above. The data set is classed as biochemical. The note with it: 100 nM, ATP 10 μM; read-out: Residual activity (%) RET. How it is done: as §1, §2
In another data set the target is MARK4 (Homo sapiens (Human), UniProt Q96L34). The data set is described as above. The data set is classed as biochemical. The note with it: 100 nM, ATP 10 μM; read-out: Residual activity (%) MARK4 (MARKA [sic] in Table 32). The procedure:
as §1, §2

In the next data set the target is RSK4 (Homo sapiens (Human), UniProt Q9UK32). Described as above. The format is biochemical. As to conditions: 100 nM, ATP 10 μM; read-out: Residual activity (%) RSK4. How it is done:
as §1, §2

In the next data set the test system is ES-2 cells. As to the kind of experiment: Cell growth suppression experiment. The format is cell-based. The note with it: for IC50: Homo sapiens, 48 h, cultured for 2 days, read-out: IC50 (cell growth suppression, ranking).
A short description of data set [1]: Pharmacokinetic test in mice. The data set is classed as in vivo. The note with it: female, BALB/c, mouse, whole blood, iv, liposome formulations, 1.0 mg/kg i.v., trapezoidal method.
The test system of data set [2] is Human bone marrow CD34 positive hematopoietic stem cells. Description: Human bone marrow cell myeloid lineage differentiation induction test. The data set is classed as cell-based. The note with it: 3 nM. How it is done: Human bone marrow CD34 positive hematopoietic stem cells were obtained from Lonza K. K. The frozen cells were thawed in a […] fetal bovine serum containing IMDM medium and suspended in a Complete hemaTox® Myeloid Medium. 1000 cells were seeded per well in a 96-well plate. The evaluated compound was added so that the final concentration of DMSO would be […] and 3 nM, and the cells were cultured for 7 days at 37° C. in the presence of 5% CO2. After completion of culture, half of the amount of cell suspension was retrieved from each well. The luminescence was measured using CellTiter-Glo® 3D Reagent (Promega, G968B) to calculate the cell survival percentage by the following equation. Cell survival percentage (%)=(measurement value of luminescence after 7 days of evaluated compound)/(measurement value of luminescence after 7 days of control group)×100

A short description of data set [3]: Liposome encapsulation test (Test Example 6). The format is physicochemical. The procedure:
6.48 g of hydrogenated soybean phosphatidylcholine (COATSOME NC-21E, NOF Corporation), 2.32 g of cholesterol (Sigma) and 2.06 g of distearoylphosphatidylethanolamine-methoxypolyethylene glycol 2000 (SUNBRIGHT DSPE-020CN, NOF Corporation) were dissolved in 560 mL of t-butyl alcohol heated to 65° C. The solution was frozen with dry ice/acetone bath and t-butyl alcohol was then removed by evaporation under reduced pressure to obtain a lipid mixture.
200 mL of 250 mM ammonium sulfate solution was added to the lipid mixture. The resulting mixture was heated to 65° C. and dispersed with a homogenizer (ULTRA-TURRAX, IKA) to obtain a crude liposome dispersion. […] The prepared amount was increased or decreased appropriately.
2 to 3 mg of the test compound was weighed out. 1 mL of empty liposome solution with a total lipid concentration of 50 mM was added. An aqueous 1 mol/L hydrochloric acid or 1 mol/L sodium hydroxide solution was added to adjust the pH to 5.5 to 7. […] Insolubles, when present, were removed by centrifugation for 5 minutes at 15,000×g.
100 μL of liposome solution was passed through an ultrafiltration filter (Amicon Ultra, 100K, 0.5 mL, Merck), and centrifuged at 4° C. at 15,000×g for 10 minutes. The concentration of the compound in the filtrate after ultrafiltration was measured by HPLC as the unencapsulated compound concentration.
The liposome solution was diluted with a trifluoroacetic acid/water/methanol mixture (0.1/25/75) and was left standing for 10 minutes or longer at 5° C. The solution was centrifuged for 5 minutes at 15,000×g to remove insolubles. The compound concentration in the supernatant was measured by HPLC as the compound concentration in the liposome solution.
The encapsulation ratio and the encapsulation efficiency were calculated by the following equations. Encapsulation ratio (%)=(compound concentration in liposome solution−unencapsulated compound concentration)×100/compound concentration in liposome solution Encapsulation efficiency (%)=(compound concentration in liposome solution−unencapsulated compound concentration)×100/concentration upon compound introduction

Structures are written as SMILES. Where two headings read alike, the source gives them in different places.

Sequence of RSK2 (P51812 whole entry): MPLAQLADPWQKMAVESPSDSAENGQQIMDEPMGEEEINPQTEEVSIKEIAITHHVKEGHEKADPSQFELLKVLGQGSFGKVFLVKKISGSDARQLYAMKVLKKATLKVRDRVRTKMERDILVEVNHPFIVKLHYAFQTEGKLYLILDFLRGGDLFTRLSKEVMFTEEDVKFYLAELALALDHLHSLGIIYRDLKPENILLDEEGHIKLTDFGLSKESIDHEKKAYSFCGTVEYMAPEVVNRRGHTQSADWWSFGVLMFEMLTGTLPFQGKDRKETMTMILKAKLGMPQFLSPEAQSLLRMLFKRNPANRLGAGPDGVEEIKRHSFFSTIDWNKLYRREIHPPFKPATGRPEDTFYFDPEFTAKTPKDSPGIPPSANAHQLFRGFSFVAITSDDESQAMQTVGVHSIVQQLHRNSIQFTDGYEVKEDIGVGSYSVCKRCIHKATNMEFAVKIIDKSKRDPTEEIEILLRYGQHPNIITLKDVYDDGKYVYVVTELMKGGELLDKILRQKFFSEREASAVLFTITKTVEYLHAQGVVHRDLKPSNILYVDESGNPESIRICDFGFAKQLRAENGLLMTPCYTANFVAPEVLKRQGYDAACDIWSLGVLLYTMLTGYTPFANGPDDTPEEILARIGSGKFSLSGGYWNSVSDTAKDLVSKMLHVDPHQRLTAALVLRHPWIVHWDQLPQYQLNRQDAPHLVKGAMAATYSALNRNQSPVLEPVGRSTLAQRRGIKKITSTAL
Sequence of SIK2 (Q9H0K1 whole entry): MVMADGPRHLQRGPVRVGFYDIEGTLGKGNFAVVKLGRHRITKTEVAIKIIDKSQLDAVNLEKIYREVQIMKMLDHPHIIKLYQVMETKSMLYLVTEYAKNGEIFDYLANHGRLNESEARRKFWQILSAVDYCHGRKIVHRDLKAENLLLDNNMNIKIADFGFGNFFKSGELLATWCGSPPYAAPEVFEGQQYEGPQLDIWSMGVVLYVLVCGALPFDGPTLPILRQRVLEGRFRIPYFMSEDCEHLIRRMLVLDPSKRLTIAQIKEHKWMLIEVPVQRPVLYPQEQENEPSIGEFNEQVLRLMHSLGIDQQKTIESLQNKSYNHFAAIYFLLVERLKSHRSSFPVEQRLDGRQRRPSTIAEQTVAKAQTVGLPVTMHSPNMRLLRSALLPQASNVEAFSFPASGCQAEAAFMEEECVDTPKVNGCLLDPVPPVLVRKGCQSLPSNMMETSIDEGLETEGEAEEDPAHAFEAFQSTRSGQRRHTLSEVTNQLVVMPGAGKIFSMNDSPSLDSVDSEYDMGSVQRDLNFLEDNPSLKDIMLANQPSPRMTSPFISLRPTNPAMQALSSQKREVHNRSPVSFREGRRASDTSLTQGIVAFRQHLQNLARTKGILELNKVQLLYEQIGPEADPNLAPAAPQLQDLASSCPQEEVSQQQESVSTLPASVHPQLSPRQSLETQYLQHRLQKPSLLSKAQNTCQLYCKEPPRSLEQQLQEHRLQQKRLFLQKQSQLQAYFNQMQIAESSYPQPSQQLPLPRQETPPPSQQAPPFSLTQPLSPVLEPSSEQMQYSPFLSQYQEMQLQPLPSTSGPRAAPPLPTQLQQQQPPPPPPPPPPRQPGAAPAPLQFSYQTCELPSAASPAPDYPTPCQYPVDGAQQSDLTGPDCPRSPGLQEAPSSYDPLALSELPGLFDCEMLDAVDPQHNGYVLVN
Sequence of RSK1 (Q15418 whole entry): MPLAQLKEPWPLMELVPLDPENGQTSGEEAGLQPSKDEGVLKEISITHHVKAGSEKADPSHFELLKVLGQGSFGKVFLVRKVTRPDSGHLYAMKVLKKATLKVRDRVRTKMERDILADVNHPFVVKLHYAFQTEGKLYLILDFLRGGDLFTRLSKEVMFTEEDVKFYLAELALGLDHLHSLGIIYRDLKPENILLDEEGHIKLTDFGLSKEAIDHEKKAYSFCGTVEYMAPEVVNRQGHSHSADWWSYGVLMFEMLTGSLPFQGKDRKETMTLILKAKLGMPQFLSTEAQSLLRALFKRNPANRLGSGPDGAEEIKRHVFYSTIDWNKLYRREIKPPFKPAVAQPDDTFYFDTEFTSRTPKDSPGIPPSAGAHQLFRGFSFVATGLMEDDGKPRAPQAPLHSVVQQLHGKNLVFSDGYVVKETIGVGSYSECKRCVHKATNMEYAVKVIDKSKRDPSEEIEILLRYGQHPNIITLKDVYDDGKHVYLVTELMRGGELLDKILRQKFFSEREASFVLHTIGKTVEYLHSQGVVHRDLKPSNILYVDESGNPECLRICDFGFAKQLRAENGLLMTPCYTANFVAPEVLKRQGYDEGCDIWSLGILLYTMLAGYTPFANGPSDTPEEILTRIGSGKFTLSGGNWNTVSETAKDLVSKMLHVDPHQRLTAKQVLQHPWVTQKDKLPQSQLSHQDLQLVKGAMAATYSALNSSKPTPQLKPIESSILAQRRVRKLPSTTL

Regarding `COc1cccc(OCCCN)c1-c1cc(Nc2cnc(C#N)cn2)n[nH]1` [Prexasertib, reference compound], the remaining activity at 0.1 µM stood at 2.52% on CAMK2A; 7.76% on TNIK; 1.69% at RSK3; 2.62% on SIK2; 11.4% on MELK; 12.7% on TRKC. Moreover, the remaining activity at 0.1 µM is 0.98% on RSK2; 2.23% on RSK1; 7.12% on RET; 10.2% on MARK4; 4.78% on RSK4. Also, in the data set with ES-2 cells, the IC50 – broadly, the point on the concentration scale where inhibition reaches its midpoint – was below 30 nM. Further, the AUC(0-t) – broadly, exposure summed from dosing to a finite time, without extrapolation to infinity – in [1] is 236 µg·h/mL. The “effect on myeloid cells induced to differentiate from human bone marrow cells (in words)” value in data set [2] was “exhibited an effect of suppressing myeloid cells induced to differentiate from human bone marrow cells”. Besides, the “Compound concentration in liposome solution” value in data set [3] (concentration upon compound introduction 2 mg/mL) came to 2160 µg/mL.
For the molecule `COc1ccnc(OCCCN)c1-c1cc(Nc2cnc(C#N)cn2)n[nH]1` [Example 1, 5-({5-[2-(3-aminopropoxy)-4-methoxypyridin-3-yl]-1H-pyrazol-3-yl}amino)pyrazine-2-carbonitrile], the remaining activity at 0.1 µM at CAMK2A turned out to be 13.9%; at TNIK, 17.8%; at RSK3, 3.91%; on SIK2, 14.1%; on MELK, 17.2%; on TRKC, 17.4%. Further, the remaining activity at 0.1 µM turned out to be 4.32% on RSK2; 8.51% on RSK1; 19% at RET; 24.1% at MARK4; 9.05% at RSK4. In addition, in the data set with ES-2 cells, the IC50 was below 30 nM. Also, the “cell growth suppression effect (in words)” value in the data set on ES-2 cells (compared with prexasertib) is given as “excellent cell growth suppression effect that is equivalent to that of prexasertib”. Further, the AUC(0-t) in data set [1] came to 447 µg·h/mL. In addition, the “effect on myeloid cells induced to differentiate from human bone marrow cells (in words)” value in data set [2] is “does not exhibit an effect of suppressing myeloid cells induced to differentiate from human bone marrow cells”. Besides, the “Encapsulation efficiency” value in [3] is reported as at least 80%; in data set [3] (concentration upon compound introduction 3 mg/mL) it was 87.4%. Moreover, the “liquid viscosity during the liposome encapsulation procedure” value in data set [3] (pH adjusted by adding 1 mol/L hydrochloric acid) is “increase in viscosity was not found”.

For the origin of these results see patent publication US11564920B2, “5-heteroaryl-1H-pyrazol-3-amine derivative” (Sumitomo Pharma Co., Ltd., priority 2020, dated 2023).
